The kinase profiling compilation of Christmann-Franck et al. (2016)

Legend:
Experiment in all cases: radiometric filter-binding kinase assay, Kinaseprofiler
[1] = tested on: AXL (human), P30530 [Q764R]; details: ATP 90 µM
[2] = tested on: BRSK2 (human), Q8IWQ3 [S251I]; details: ATP 70 µM
[3] = tested on: IRAK4 (human), Q9NWZ3 [A81V]; details: ATP 200 µM
[4] = tested on: RPS6KB1 (human), P23443 [T412E]; details: ATP 15 µM
[5] = tested on: SGK1 (human), O00141 [S422D]; details: ATP 90 µM
CHEK1 (human) = CHEK1 (human) (UniProt O14757); details: compound 10.0 µM; ATP 90 µM
CSNK1D (rat) = details: compound 10.0 µM; accession and sequence are those of the human protein
CSNK1G1 (human) = CSNK1G1 (human) (UniProt Q9HCP0); details: compound 10.0 µM; ATP 15 µM
[6] = biological target: CSNK2A1 CSNK2B CSNK2A2 (human) (UniProt P19784+P68400+P67870); details: compound 10.0 µM; ATP 15 µM
EPHA8 (human) = EPHA8 (human) (UniProt P29322); details: compound 1.0 µM; ATP 200 µM
EPHB1 (human) = EPHB1 (human) (UniProt P54762); details: compound 10.0 µM; ATP 200 µM
FER (human) = FER (human) (UniProt P16591); details: compound 10.0 µM; ATP 70 µM
FGR (human) = FGR (human) (UniProt P09769); details: compound 1.0 µM; ATP 45 µM
FLT3 (human) = FLT3 (human) (UniProt P36888); details: ATP 200 µM
FYN (human) = FYN (human) (UniProt P06241); details: compound 1.0 µM; ATP 70 µM
HIPK3 (human) = HIPK3 (human) (UniProt Q9H422); details: ATP 15 µM
INSR (human) = INSR (human) (UniProt P06213); details: compound 1.0 µM; ATP 200 µM
IRAK1 (human) = IRAK1 (human) (UniProt P51617); details: compound 10.0 µM; ATP 45 µM
MAP2K1 (human) = MAP2K1 (human) (UniProt Q02750); details: compound 1.0 µM; ATP 10 µM
MAPK3 (human) = MAPK3 (human) (UniProt P27361); details: compound 1.0 µM; ATP 70 µM
MAPKAPK3 (human) = MAPKAPK3 (human) (UniProt Q16644); details: compound 10.0 µM; ATP 90 µM
MELK (human) = MELK (human) (UniProt Q14680); details: compound 1.0 µM; ATP 45 µM
MTOR FKBP1A (human) = MTOR FKBP1A (human) (UniProt P42345+P62942); details: compound 10.0 µM; ATP 45 µM
NLK (human) = NLK (human) (UniProt Q9UBE8); details: compound 1.0 µM; ATP 200 µM
NTRK2 (human) = NTRK2 (human) (UniProt Q16620); details: ATP 90 µM
NUAK1 (human) = NUAK1 (human) (UniProt O60285); details: ATP 45 µM
PAK7 (human) = PAK7 (human) (UniProt Q9P286); details: compound 10.0 µM; ATP 15 µM
PASK (human) = PASK (human) (UniProt Q96RG2); details: compound 10.0 µM; ATP 15 µM
PLK3 (human) = PLK3 (human) (UniProt Q9H4B4); details: compound 10.0 µM; ATP 70 µM
PRKACA (human) = PRKACA (human) (UniProt P17612); details: compound 1.0 µM; ATP 10 µM
PRKG1 (human) = PRKG1 (human) (UniProt Q13976); details: compound 1.0 µM; ATP 90 µM
PTK2B (human) = PTK2B (human) (UniProt Q14289); details: compound 10.0 µM; ATP 90 µM
RPS6KA4 KD1 KD2 (human) = RPS6KA4 KD1 KD2 (human) (UniProt O75676); details: ATP 45 µM
SRC (human) = SRC (human) (UniProt P12931); details: compound 10.0 µM; ATP 200 µM
SRPK1 (human) = SRPK1 (human) (UniProt Q96SB4); details: compound 10.0 µM; ATP 10 µM
SRPK3 (human) = SRPK3 (human) (UniProt Q9UPE1); details: compound 10.0 µM; ATP 15 µM
STK17A (human) = STK17A (human) (UniProt Q9UEE5); details: compound 10.0 µM; ATP 10 µM
STK24 (human) = STK24 (human) (UniProt Q9Y6E0); details: compound 1.0 µM; ATP 15 µM
STK4 (human) = STK4 (human) (UniProt Q13043); details: compound 1.0 µM; ATP 90 µM
TLK2 (human) = TLK2 (human) (UniProt Q86UE8); details: ATP 10 µM
TXK (human) = TXK (human) (UniProt P42681); details: compound 1.0 µM; ATP 200 µM
ULK3 (human) = ULK3 (human) (UniProt Q6PHR2); details: compound 10.0 µM; ATP 10 µM
WNK2 (human) = WNK2 (human) (UniProt Q9Y3S1); details: compound 10.0 µM; ATP 200 µM
AURKB (human) = AURKB (human) (UniProt Q96GD4); details: compound 10.0 µM; ATP 10 µM
CAMK2G (human) = CAMK2G (human) (UniProt Q13555); details: compound 10.0 µM; ATP 10 µM
CDC42BPA (human) = CDC42BPA (human) (UniProt Q5VT25); details: compound 10.0 µM; ATP 45 µM
EPHA1 (human) = EPHA1 (human) (UniProt P21709); details: compound 1.0 µM; ATP 45 µM
EPHA3 (human) = EPHA3 (human) (UniProt P29320); details: compound 1.0 µM; ATP 120 µM
[7] = biological target: JAK2 JH1 catalytic (human) (UniProt O60674); details: compound 1.0 µM; ATP 45 µM
KDR (human) = KDR (human) (UniProt P35968); details: compound 10.0 µM; ATP 90 µM
MARK2 (human) = MARK2 (human) (UniProt Q7KZI7); details: compound 1.0 µM; ATP 15 µM
NTRK1 (human) = NTRK1 (human) (UniProt P04629); details: compound 1.0 µM; ATP 120 µM
PAK4 (human) = PAK4 (human) (UniProt O96013); details: compound 10.0 µM; ATP 10 µM
PIM1 (human) = PIM1 (human) (UniProt P11309); details: compound 10.0 µM; ATP 90 µM
RPS6KA3 KD1 KD2 (human) = RPS6KA3 KD1 KD2 (human) (UniProt P51812); details: compound 1.0 µM; ATP 10 µM
RPS6KA5 KD1 KD2 (human) = RPS6KA5 KD1 KD2 (human) (UniProt O75582); details: compound 1.0 µM; ATP 90 µM
TAOK1 (human) = TAOK1 (human) (UniProt Q7L7X3); details: compound 1.0 µM; ATP 10 µM
TNK2 (human) = TNK2 (human) (UniProt Q07912); details: compound 1.0 µM; ATP 70 µM

Sequence of BRSK2 (human), Q8IWQ3 [S251I] (Q8IWQ3 whole entry, looked up, stated change not applied): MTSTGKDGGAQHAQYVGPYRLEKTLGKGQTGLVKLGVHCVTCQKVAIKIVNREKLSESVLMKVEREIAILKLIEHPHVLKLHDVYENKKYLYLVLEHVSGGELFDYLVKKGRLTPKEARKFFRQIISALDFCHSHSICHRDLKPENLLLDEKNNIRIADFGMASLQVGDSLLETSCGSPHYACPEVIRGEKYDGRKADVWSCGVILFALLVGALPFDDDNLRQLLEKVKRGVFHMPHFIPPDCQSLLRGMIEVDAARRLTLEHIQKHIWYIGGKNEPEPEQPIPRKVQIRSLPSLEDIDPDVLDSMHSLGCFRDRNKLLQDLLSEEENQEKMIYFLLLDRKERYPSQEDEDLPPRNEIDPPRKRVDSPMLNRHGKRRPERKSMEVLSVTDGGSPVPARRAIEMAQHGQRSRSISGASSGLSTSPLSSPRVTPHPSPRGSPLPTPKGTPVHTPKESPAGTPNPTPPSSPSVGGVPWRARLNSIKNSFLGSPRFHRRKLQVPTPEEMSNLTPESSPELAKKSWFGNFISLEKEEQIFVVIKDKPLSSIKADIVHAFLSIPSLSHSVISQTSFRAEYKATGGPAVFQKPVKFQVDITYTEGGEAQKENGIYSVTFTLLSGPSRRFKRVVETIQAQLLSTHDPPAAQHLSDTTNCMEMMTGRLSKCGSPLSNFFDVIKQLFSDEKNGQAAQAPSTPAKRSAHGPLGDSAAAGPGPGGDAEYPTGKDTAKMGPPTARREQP
Sequence of IRAK4 (human), Q9NWZ3 [A81V] (Q9NWZ3 whole entry, looked up, stated change not applied): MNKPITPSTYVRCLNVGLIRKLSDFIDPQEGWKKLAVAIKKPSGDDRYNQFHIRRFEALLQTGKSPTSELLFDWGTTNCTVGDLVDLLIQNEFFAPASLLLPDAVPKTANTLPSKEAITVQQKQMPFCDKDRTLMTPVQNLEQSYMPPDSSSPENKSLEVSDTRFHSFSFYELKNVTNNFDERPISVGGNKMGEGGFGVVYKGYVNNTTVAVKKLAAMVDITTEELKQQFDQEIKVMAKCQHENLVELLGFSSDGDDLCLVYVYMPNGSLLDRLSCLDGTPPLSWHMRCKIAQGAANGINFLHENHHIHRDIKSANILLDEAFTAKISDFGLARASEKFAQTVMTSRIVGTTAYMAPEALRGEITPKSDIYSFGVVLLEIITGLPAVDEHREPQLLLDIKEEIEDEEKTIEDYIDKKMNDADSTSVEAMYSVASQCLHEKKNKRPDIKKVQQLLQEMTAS
Sequence of AXL (human), P30530 [Q764R] (P30530 whole entry Q764R, looked up): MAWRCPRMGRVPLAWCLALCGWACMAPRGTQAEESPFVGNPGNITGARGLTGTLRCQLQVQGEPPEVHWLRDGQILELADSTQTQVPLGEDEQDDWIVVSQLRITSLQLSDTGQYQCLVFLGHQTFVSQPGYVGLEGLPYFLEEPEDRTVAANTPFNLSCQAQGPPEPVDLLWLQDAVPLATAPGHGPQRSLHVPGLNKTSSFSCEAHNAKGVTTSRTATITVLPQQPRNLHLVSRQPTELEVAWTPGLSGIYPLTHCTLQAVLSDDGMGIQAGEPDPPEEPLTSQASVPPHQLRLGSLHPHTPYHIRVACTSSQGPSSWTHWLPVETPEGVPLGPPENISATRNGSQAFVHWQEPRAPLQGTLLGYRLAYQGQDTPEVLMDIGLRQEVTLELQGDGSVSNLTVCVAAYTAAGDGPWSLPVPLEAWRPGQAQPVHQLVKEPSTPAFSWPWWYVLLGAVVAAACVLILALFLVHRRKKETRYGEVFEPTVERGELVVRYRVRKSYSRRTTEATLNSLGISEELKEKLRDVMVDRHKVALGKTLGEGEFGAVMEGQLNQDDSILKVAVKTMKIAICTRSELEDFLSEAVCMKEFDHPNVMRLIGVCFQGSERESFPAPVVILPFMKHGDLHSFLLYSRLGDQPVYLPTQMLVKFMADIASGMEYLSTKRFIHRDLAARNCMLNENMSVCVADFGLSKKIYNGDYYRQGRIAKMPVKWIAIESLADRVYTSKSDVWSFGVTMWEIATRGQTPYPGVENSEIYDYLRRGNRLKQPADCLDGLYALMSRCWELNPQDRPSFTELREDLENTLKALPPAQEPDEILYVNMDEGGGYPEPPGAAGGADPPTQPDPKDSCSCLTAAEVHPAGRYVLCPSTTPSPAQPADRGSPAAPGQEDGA
Sequence of PRKG1 (human) (Q13976 whole entry, looked up): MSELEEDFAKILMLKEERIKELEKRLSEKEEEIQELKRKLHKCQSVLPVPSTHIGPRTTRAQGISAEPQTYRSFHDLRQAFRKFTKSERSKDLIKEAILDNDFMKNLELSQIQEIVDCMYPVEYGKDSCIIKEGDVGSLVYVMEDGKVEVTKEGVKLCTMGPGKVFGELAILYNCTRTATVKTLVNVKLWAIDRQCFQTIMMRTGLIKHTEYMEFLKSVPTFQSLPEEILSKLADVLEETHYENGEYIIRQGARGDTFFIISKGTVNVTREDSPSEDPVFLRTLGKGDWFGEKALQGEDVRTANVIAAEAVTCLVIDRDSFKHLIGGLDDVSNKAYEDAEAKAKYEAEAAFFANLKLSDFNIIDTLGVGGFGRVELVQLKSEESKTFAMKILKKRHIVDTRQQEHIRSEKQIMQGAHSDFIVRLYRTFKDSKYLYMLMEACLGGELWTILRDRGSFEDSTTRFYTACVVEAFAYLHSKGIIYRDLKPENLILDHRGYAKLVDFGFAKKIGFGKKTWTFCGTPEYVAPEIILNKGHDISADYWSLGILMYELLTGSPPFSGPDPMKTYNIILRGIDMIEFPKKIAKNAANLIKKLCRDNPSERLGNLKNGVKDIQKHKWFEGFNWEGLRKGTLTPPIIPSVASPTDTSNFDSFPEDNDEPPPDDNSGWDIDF
Sequence of TLK2 (human) (Q86UE8 whole entry, looked up): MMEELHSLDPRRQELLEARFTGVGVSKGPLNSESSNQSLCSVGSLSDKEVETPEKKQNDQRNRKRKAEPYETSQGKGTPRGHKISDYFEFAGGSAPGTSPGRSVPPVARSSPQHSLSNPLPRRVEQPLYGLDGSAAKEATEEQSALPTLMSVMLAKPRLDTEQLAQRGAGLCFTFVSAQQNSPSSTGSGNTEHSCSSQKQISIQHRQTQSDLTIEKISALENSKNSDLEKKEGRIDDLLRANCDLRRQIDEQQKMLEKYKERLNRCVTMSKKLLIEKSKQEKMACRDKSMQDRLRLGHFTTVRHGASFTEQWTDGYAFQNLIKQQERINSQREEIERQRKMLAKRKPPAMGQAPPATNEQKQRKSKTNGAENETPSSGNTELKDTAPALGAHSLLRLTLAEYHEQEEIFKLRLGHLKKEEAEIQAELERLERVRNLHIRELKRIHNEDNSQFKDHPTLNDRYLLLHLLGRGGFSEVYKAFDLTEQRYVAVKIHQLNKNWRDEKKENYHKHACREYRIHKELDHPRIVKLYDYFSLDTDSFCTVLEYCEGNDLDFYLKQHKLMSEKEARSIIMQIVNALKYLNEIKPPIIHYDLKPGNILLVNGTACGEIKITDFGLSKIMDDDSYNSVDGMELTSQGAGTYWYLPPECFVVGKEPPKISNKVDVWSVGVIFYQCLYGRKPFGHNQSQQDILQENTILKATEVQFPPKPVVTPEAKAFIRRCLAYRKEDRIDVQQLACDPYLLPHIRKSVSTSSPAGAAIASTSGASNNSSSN
Sequence of HIPK3 (human) (Q9H422 whole entry, looked up): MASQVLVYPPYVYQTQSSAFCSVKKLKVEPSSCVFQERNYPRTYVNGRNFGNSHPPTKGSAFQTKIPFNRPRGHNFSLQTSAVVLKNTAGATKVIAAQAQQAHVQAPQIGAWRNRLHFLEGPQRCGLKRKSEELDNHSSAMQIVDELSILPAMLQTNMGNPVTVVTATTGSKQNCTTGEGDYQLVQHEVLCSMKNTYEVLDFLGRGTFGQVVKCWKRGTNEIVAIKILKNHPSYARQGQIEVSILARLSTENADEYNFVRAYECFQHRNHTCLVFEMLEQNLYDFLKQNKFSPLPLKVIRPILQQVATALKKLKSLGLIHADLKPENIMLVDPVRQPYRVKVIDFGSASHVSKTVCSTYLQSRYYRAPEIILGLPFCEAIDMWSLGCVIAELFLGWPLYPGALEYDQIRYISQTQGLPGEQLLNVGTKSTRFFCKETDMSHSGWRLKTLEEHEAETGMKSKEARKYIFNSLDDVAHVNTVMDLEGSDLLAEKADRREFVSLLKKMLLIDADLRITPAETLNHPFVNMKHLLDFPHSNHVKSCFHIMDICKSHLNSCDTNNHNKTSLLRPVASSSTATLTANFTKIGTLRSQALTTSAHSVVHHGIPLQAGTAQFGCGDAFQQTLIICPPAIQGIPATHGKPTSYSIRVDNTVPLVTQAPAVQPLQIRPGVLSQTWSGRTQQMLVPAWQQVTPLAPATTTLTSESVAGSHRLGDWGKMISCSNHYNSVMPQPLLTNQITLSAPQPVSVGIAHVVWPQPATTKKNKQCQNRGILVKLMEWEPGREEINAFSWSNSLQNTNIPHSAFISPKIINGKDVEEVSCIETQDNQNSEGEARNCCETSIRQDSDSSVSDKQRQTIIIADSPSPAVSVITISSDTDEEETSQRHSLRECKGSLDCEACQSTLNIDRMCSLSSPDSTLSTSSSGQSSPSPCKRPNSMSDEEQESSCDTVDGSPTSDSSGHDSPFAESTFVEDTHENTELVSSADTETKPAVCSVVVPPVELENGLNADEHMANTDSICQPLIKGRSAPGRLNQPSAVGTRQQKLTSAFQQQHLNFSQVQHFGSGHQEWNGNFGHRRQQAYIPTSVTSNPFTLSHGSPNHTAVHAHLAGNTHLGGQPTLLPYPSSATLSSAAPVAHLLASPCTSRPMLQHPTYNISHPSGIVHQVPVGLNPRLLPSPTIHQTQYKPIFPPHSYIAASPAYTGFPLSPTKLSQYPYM
Sequence of MTOR FKBP1A (human) (P62942 whole entry, looked up, other chains not shown): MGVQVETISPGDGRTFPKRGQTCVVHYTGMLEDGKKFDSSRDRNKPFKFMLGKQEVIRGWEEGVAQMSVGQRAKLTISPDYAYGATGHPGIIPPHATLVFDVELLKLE

SMILES: COC(=O)[C@]1(O)C[C@@H]2O[C@@]1(C)n1c3ccccc3c3c4c(c5c6ccccc6n2c5c31)C(=O)NC4
- residual activity ([1]; compound 10.0 µM): -3%
- residual activity ([2]; compound 10.0 µM): 0%
- residual activity ([3]; compound 1.0 µM): -2%
- residual activity ([3]; compound 10.0 µM): 0%

SMILES: O=C1c2ccccc2-c2n[nH]c3cccc1c23
- residual activity ([1]; compound 1.0 µM): 50%
- residual activity ([1]; compound 10.0 µM): 17%
- residual activity ([2]; compound 1.0 µM): 64%
- residual activity ([2]; compound 10.0 µM): 9%
- residual activity ([3]; compound 1.0 µM): 36%
- residual activity ([3]; compound 10.0 µM): 11%
- residual activity ([4]; compound 1.0 µM): 55%
- residual activity ([4]; compound 10.0 µM): 14%
- residual activity ([5]; compound 1.0 µM): 60%
- residual activity ([5]; compound 10.0 µM): 24%

SMILES: CN[C@@H]1C[C@H]2O[C@@](C)([C@@H]1OC)n1c3ccccc3c3c4c(c5c6ccccc6n2c5c31)C(=O)NC4
- residual activity ([2]; compound 10.0 µM): 0%
- residual activity (CHEK1 (human)): 0%
- residual activity (CSNK1D (rat)): 52%
- residual activity (CSNK1G1 (human)): 54%
- residual activity [6]: 95%
- residual activity (EPHA8 (human)): 26%
- residual activity (EPHB1 (human)): 0%
- residual activity (FER (human)): 0%
- residual activity (FGR (human)): 0%
- residual activity (FLT3 (human); compound 1.0 µM): 0%
- residual activity (FLT3 (human); compound 10.0 µM): 0%
- residual activity (FYN (human)): 0%
- residual activity (HIPK3 (human); compound 1.0 µM): 82%
- residual activity (HIPK3 (human); compound 10.0 µM): 34%
- residual activity (INSR (human)): 26%
- residual activity (IRAK1 (human)): 0%
- residual activity ([3]; compound 10.0 µM): 0%
- residual activity (MAP2K1 (human)): 0%
- residual activity (MAPK3 (human)): 62%
- residual activity (MAPKAPK3 (human)): 43%
- residual activity (MELK (human)): 0%
- residual activity (MTOR FKBP1A (human)): 78%
- residual activity (NLK (human)): 26%
- residual activity (NTRK2 (human); compound 1.0 µM): 0%
- residual activity (NTRK2 (human); compound 10.0 µM): 0%
- residual activity (NUAK1 (human); compound 1.0 µM): 0%
- residual activity (NUAK1 (human); compound 10.0 µM): 0%
- residual activity (PAK7 (human)): 0%
- residual activity (PASK (human)): 0%
- residual activity (PLK3 (human)): 43%
- residual activity (PRKACA (human)): 0%
- residual activity (PRKG1 (human)): 0%
- residual activity (PTK2B (human)): 0%
- residual activity (RPS6KA4 KD1 KD2 (human); compound 1.0 µM): 0%
- residual activity (RPS6KA4 KD1 KD2 (human); compound 10.0 µM): 0%
- residual activity (SRC (human)): 0%
- residual activity (SRPK1 (human)): -4%
- residual activity (SRPK3 (human)): 51%
- residual activity (STK17A (human)): 0%
- residual activity (STK24 (human)): 0%
- residual activity (STK4 (human)): 0%
- residual activity (TLK2 (human); compound 1.0 µM): 0%
- residual activity (TLK2 (human); compound 10.0 µM): 0%
- residual activity (TXK (human)): 24%
- residual activity (ULK3 (human)): 0%
- residual activity (WNK2 (human)): 37%

SMILES: O=C(Nc1cccc(Nc2nccc(Nc3cccc(C(F)(F)F)c3)n2)c1)C1CC1
- residual activity (AURKB (human)): -1%
- residual activity (CAMK2G (human)): 21%
- residual activity (CDC42BPA (human)): 147%
- residual activity (EPHA1 (human)): 24%
- residual activity (EPHA3 (human)): 100%
- residual activity [7]: 17%
- residual activity (KDR (human)): 24%
- residual activity (MARK2 (human)): 100%
- residual activity (NTRK1 (human)): 21%
- residual activity (PAK4 (human)): 28%
- residual activity (PIM1 (human)): 28%
- residual activity (RPS6KA3 KD1 KD2 (human)): 17%
- residual activity (RPS6KA5 KD1 KD2 (human)): 100%
- residual activity (TAOK1 (human)): 100%
- residual activity (TNK2 (human)): 24%
